Key:
male Sprague-Dawley rats [1] = test system: male Sprague-Dawley rats
Procedure: All surgical and experimental procedures were reviewed and approved by the Animal Care and Handling Committee of Laval University, in accordance with the Canadian Council on Animal Care (file no. 2012-223). Experiments were performed on male Sprague-Dawley rats (300–375 g) purchased from Charles River Laboratories (St-Constant, Qc, Canada). Only animals of the male gender have been studied to be consistent with related and recently published data ([Jean et al., 2016a]). The rats were housed in a temperature-controlled room (22 ± 1 °C) on a 12 h/12 h light-dark cycle (lights on at 0600) and had free access to normal chow diet and tap water. They were allowed to acclimate to their environmental conditions for one week prior to being studied. At the end of the acclimation period, the rats were anesthetised with sodium pentobarbital (50 mg kg^−1, i.p., supplemented as required) and had one catheter implanted into the right jugular vein (for intravenous ( i.v.) injection) and one into the left femoral artery (for direct and continuous measurement of blood pressure and heart rate as previously described, [Jean et al., 2016a]). In some experiments, a miniaturized pulsed Doppler flow probe ([Haywood et al., 1981]) was implanted around the distal abdominal aorta (below the level of the ileocaecal artery) through a midline abdominal incision to monitor changes in hindquarter hemodynamic, according to the method previously developed by [Gardiner & Bennett (1988)] and as previously described ([Bachelard et al., 1992]; [Jean et al., 2016a]). Experiments started at least 30 min following the end of surgery in anesthetised rats.
Baseline heart rate and phasic and mean arterial blood pressure were recorded over a period of 15 min in anesthetized rats. […] Peptides were dissolved in isotonic saline (0.9% NaCl) containing 0.1% BSA to prevent the adsorption of peptide to the glassware and plastic surfaces. All i.v. injections were given as 100 µl boluses which were washed in with a further 100 µl of saline (the dead space of the catheter). Only one peptide was tested per group of rats and each injection started with saline-BSA 0.1% followed by the lowest dose of peptide. The next dose was administered once all recorded cardiovascular parameters had returned to baseline after the previous injection (usually 2–10 min). At the end of the experiments each animal was euthanized with an overdose of sodium pentobarbital (240 mg/kg, i.v.).
In these experiments, enalaprilat was intravenously administered as bolus (0.1 mg/kg, 0.1 ml) following a 10 min period of baseline measurements of heart rate and blood pressure. Fifteen minutes later, a dose–response curve to MK was obtained, as described above. […] In these experiments, icatibant was intravenously administered as bolus (25 µg/kg, 0.1 ml) 15 min before the i.v. injection of increasing doses of MK, as above. […] In these experiments, pyrilamine was intravenously administered as bolus (5 mg/kg, 0.1 ml) 15 min before the i.v. injection of increasing doses of MK, as above.
(§1) Results are presented as means ± s.e.m. Radioligand binding data were fitted by nonlinear regression to a one-site competition equation using a least-square method (Prism 5.0; GraphPad Software Inc., San Diego, CA, USA) and IC50 values calculated from this procedure. The same computer program was used to draw concentration-effect curves (least square fitting of sigmoidal dose–response equation with variable slope) and to derive contractile EC50 values. Data describing baseline values of heart rate and mean arterial blood pressure and hypotensive responses to peptides in anesthetized rats were assessed by using one-way analysis of variance (ANOVA) followed by the Dunnett’s test (repeated comparison with a common control).

male Sprague-Dawley rats [2] = experiment: Acute hindquarter hemodynamic effects in anesthetized rats; type: in vivo, rat; settings: icatibant 25 µg/kg i.v., 15 min before
Procedure: Before each experiment, a 30-min stabilization period was allowed, during which continuous recording of heart rate, phasic and mean blood pressure and phasic and mean Doppler shift signals from the hindquarter probe were made in anesthetized rats, using the Biopac data acquisition and analysis system previously described ([Jean et al., 2016a]). Then, a first group of rats (n = 8) received successive i.v. injections of peptide vehicle (saline-BSA 0.1%), BK (6.4 µg/kg), and MK (1.6 µg/kg). […] Further experiments were made in a second group of rats (n = 6) pretreated with the B2R antagonist, icatibant. […] At the end of the experiments the rats were euthanized with an overdose of anesthetic (pentobarbital 240 mg/kg, i.v.).
Results are presented as means ± s.e.m.

MRGPRX2 (human sequence) = settings: ref McNeil et al., 2015; cited from earlier work
Excerpt: MRGPRX2 has been recently described as a promiscuous receptor for cationic polymers and drugs that produce direct mast cell degranulation ([McNeil et al., 2015]). […] The contractile effect of MK on the human umbilical vein and ...

[3] = target: T1, human isolated umbilical vein (BK B2R; histamine H1R) (Homo sapiens, UniProt P30411); settings: antagonist 1 µM, 30 min before MK
T1 sequence (P30411 1-391): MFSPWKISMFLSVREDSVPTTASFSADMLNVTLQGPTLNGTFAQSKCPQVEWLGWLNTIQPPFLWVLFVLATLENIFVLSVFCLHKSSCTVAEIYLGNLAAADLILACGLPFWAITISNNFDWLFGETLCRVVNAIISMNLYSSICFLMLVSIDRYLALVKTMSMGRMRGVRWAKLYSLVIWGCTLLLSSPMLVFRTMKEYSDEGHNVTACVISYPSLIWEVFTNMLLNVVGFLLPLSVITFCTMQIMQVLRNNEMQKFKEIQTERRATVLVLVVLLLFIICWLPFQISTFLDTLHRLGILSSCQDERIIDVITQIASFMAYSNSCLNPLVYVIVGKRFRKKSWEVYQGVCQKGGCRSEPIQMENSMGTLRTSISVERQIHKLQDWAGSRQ
Excerpt: The institutional research ethics board (CHU de Québec) approved the anonymous use of human umbilical cord segments obtained after elective cesarean section deliveries (file number: 2012-323). Informed written consent was obtained from mothers.
as §1, with “control). The effects of drugs on the hypotensive responses to each dose of MK were assessed by using ANOVA followed by the Dunnett’s test.” for “control).”

D-Arg-[Hyp^3, Thi^5, D-Tic^7, Oic^8] bradykinin [icatibant]
Basal mean arterial blood pressure after pre-treatment (male Sprague-Dawley rats [1]; 15 min after i.v., enalaprilat 0.1 mg/kg n=6, icatibant 25 µg/kg n=6, pyrilamine 5 mg/kg n=16, means ± s.e.m., control 96.5 ± 2.5): 90.3 ± 4.6 | Basal heart rate after pre-treatment (male Sprague-Dawley rats [1]; 15 min after i.v., enalaprilat 0.1 mg/kg n=6, icatibant 25 µg/kg n=6, pyrilamine 5 mg/kg n=16, means ± s.e.m., control 351 ± 10, * P < 0.01 vs control): 362 ± 28 | effect of pretreatment on hypotensive effect of MK (male Sprague-Dawley rats [1]; enalaprilat 0.1 mg/kg, icatibant 25 µg/kg, pyrilamine 5 mg/kg i.v., 15 min before MK): abated | effect of icatibant on cardiovascular responses to BK and MK (male Sprague-Dawley rats [2]): all significantly abated | effect of icatibant on cardiovascular responses to BK and MK (male Sprague-Dawley rats [2]; listed as Icatibant): significantly abated all types of responses to the 2 kinins | MRGPRX2-activating concentration over B2R-antagonizing concentration (MRGPRX2 (human sequence)): 5 to 6 orders of magnitude | effect of receptor antagonist on MK-induced contraction [3]: profound inhibitory effect

Source: publication PMC5248581 (PeerJ, 2017)
